Results as given in US20240269139A1, “COMPOUNDS FOR TARGETED PROTEIN DEGRADATION OF KINASES” (DANA-FARBER CANCER INSTITUTE, INC., priority 2020, published 2024).
Where two headings read alike, the source gives them in different places.

Assays:
Assay type in all cases: cell-based
[1] = molecular target: T1, protein kinases (human kinome) (Homo sapiens, UniProt O14965)
T1 sequence (O14965 1-403): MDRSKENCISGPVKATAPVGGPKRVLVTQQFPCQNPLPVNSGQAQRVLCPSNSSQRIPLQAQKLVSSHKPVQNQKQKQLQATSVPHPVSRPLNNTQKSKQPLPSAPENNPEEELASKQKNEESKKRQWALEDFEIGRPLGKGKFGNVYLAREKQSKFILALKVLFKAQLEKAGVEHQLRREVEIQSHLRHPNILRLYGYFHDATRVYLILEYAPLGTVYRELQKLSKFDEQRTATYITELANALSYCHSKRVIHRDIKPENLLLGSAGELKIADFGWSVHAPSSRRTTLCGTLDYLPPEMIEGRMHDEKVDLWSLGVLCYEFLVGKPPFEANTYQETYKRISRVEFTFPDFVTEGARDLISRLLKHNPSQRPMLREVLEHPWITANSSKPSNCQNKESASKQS

[2] = molecular target: T2, protein kinases (human kinome) (Homo sapiens, UniProt O14976)
T2 sequence (O14976 1-1311): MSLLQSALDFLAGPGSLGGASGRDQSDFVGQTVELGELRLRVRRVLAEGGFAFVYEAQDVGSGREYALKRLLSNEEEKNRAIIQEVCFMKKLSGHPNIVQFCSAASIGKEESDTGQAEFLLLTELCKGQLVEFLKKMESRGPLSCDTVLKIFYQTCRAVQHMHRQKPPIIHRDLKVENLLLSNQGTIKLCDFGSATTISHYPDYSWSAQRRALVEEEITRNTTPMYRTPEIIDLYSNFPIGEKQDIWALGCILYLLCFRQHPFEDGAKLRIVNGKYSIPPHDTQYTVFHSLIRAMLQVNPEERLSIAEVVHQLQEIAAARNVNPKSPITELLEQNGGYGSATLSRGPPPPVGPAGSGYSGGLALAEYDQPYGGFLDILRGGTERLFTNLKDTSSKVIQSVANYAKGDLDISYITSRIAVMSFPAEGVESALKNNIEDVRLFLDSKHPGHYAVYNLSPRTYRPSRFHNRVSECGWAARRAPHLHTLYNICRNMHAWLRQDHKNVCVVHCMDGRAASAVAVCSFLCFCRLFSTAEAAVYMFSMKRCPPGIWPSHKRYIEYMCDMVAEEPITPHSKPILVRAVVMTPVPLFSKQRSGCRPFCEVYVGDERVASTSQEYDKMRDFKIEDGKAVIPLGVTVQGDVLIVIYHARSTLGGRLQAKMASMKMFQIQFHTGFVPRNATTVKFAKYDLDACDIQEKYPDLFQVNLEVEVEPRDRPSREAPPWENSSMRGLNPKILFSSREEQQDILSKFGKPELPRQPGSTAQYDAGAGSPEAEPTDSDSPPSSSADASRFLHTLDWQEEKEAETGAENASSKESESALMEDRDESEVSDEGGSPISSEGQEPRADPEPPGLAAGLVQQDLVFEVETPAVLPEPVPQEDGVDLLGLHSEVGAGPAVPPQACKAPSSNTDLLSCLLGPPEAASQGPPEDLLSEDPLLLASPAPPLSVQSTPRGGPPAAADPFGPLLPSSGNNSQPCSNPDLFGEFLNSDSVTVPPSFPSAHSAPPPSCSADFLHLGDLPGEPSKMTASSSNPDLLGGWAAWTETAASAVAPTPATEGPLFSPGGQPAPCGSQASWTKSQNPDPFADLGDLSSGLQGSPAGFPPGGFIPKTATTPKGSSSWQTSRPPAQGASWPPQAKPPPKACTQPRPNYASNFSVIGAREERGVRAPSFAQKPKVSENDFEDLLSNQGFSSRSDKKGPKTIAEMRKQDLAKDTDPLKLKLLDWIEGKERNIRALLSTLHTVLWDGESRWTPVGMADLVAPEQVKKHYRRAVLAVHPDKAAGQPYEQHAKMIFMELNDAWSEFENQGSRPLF

[3] = molecular target: protein kinases (human kinome) (Homo sapiens, UniProt P30291)
protein kinases (human kinome) (Homo sapiens, UniProt P30291), sequence (P30291 whole entry): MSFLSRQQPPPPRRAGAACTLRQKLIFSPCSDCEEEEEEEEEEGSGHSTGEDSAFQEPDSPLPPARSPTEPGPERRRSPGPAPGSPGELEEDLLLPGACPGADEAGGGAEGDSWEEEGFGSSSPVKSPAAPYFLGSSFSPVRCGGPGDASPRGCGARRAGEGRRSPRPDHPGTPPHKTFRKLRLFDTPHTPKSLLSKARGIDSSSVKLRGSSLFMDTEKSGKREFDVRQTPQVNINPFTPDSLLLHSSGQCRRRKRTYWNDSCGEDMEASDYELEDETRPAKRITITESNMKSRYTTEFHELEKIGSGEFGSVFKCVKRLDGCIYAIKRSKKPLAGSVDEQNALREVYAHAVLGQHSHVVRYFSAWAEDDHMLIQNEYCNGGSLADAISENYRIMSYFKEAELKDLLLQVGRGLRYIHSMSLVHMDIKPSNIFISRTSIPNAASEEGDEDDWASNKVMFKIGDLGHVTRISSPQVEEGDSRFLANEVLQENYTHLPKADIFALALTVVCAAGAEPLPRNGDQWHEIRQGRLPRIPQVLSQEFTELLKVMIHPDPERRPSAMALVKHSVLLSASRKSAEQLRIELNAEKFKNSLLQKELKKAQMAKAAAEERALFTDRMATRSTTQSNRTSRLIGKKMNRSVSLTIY

[4] = molecular target: protein kinases (human kinome) (Homo sapiens, UniProt P16591); details: for logFC of FER (P16591-1): down; for logFC of FER: FER P16591-1
protein kinases (human kinome) (Homo sapiens, UniProt P16591), sequence (P16591 whole entry): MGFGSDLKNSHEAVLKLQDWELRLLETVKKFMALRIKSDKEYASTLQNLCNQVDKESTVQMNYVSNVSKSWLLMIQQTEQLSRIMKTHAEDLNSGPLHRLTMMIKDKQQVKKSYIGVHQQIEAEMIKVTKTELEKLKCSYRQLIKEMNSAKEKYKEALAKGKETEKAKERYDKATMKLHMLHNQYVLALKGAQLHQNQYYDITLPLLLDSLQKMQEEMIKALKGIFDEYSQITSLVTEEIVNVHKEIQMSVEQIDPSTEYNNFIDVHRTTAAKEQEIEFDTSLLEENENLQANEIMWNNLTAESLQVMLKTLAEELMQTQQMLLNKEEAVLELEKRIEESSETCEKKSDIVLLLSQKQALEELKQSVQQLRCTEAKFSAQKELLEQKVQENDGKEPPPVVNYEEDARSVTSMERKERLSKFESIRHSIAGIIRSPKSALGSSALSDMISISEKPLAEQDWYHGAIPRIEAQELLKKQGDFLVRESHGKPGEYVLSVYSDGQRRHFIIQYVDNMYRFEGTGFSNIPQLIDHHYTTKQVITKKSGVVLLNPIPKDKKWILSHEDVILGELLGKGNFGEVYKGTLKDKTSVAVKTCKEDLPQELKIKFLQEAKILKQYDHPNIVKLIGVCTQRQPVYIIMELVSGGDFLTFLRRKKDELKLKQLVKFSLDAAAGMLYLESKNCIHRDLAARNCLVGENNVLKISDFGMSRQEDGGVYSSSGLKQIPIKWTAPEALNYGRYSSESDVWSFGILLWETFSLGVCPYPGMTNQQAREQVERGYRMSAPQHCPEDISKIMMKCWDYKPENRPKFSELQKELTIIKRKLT

[5] = molecular target: protein kinases (human kinome) (Homo sapiens, UniProt Q2M2I8)
protein kinases (human kinome) (Homo sapiens, UniProt Q2M2I8), sequence (Q2M2I8 whole entry): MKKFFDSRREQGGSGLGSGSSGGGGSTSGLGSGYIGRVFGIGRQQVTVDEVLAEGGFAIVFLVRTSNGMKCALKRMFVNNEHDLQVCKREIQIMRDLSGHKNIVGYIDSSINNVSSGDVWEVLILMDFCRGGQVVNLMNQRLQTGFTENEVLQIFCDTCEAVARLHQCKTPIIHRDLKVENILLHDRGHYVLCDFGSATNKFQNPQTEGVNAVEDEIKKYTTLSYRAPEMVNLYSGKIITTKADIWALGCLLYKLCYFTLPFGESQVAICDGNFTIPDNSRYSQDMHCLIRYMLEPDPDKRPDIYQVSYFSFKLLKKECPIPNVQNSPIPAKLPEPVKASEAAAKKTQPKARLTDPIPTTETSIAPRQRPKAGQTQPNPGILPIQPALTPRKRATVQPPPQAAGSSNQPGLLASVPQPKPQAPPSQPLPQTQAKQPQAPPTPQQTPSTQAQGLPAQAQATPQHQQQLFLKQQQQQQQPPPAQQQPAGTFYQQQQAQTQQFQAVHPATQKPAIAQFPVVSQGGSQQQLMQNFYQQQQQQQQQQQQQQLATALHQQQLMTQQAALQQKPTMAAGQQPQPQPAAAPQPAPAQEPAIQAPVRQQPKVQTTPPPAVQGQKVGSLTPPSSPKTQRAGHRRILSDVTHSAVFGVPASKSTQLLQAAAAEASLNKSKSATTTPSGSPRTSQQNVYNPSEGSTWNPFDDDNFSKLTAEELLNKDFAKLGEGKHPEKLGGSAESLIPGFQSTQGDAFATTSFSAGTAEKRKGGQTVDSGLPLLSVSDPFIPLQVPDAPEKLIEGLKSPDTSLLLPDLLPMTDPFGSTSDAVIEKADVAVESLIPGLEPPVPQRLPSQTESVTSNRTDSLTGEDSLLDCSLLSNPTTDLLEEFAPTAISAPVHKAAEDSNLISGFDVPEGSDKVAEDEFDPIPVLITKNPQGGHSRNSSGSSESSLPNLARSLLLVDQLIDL

## CC(C)S(=O)(=O)c1ccccc1Nc1nc(Nc2ccc(N3CCN(CCOCCOCCNC(=O)CNc4cccc5c4C(=O)N(C4CCC(=O)NC4=O)C5=O)CC3)cc2)ncc1Cl (stereo not drawn) [TL12.186]
[1]; experiment wp016
  logFC AURKA (O14965): −1.758
[1]; experiment wp131
  logFC AURKA (O14965): −3.193
[1]; experiment wp137
  logFC AURKA (O14965): −2.642
[2]; Experiment wp016, down
  logFC of GAK (O14976): −0.3354
[2]; GAK (O14976), direction down, experiment wp016
  logFC GAK: −0.3354
[3]; WEE1 P30291-1, experiment wp137
  logFC of WEE1: −2.511
[3]; experiment wp016
  logFC WEE1 (P30291-1): −1.514
[3]; experiment wp131
  logFC WEE1 (P30291-1): −2.574
[3]; experiment wp137
  logFC WEE1 (P30291-1): −2.511
[4]; Experiment wp016
  logFC of FER (P16591-1): −2.727
[4]; Experiment wp131
  logFC of FER (P16591-1): −2.583
[4]; Experiment wp137
  logFC of FER (P16591-1): −2.329
[4]; experiment wp016
  logFC of FER: −2.727
[4]; experiment wp131
  logFC of FER: −2.583
[4]; experiment wp137
  logFC of FER: −2.329
[5]; AAK1 (Q2M218-1), experiment wp016, down
  logFC AAK1: −1.338
[5]; AAK1 (Q2M218-1), experiment wp131, down
  logFC AAK1: −1.52
[5]; AAK1 (Q2M218-1), experiment wp137, down
  logFC AAK1: −1.31
[5]; AAK1, accession Q2M218-1, experiment wp016, direction of change down
  logFC AAK1: −1.338
[5]; AAK1, accession Q2M218-1, experiment wp131, direction of change down
  logFC AAK1: −1.52
[5]; AAK1, accession Q2M218-1, experiment wp137, direction of change down
  logFC AAK1: −1.31
